Legend:
[1] = tested on: human subjects with established cardiovascular (CV) disease and obesity or overweight; test: Randomised, double-blind, placebo-controlled clinical trial of semaglutide in established cardiovascular disease and obesity or overweight (Example 3); format: in vivo; conditions: for Heart failure leading to hospitalisation, Treatment Hazard ratio vs. placebo / Heart failure leading to hospitalisation, Events / Heart failure leading to hospitalisation, Events (%): baseline to end-of-trial (mean duration 39.8 months), 2.4 mg once weekly
Procedure: A randomised, double-blind, international multicentre, placebo-controlled clinical trial with semaglutide was carried out with 17604 human subjects with established cardiovascular (CV) disease and obesity or overweight.
Key inclusion criteria were at least 45 years of age, BMI of at least 27 kg/m^2 and established (CV) disease. Key exclusion criteria were type 1 diabetes or type 2 diabetes.
Subjects were randomised in a 1:1 manner to receive either 2.4 mg semaglutide or placebo once weekly as add-on to standard of care. After randomization, a 16-week dose escalation period followed and then an event driven maintenance period with a mean (+SD) duration of exposure to semaglutide or placebo in the overall trial population of 34.2 (±13.7) months (33.3 (±14.4) months for semaglutide and 35.1 (±13.0) months for placebo). Subjects administered semaglutide initiated treatment with a once-weekly dose of 0.25 mg and followed a fixed dose escalation regimen, with dose increase every 4 weeks (through dosages of 0.5, 1.0, 1.7 mg once weekly), until the 2.4 mg once weekly maintenance dose was reached after 16 weeks.
Results from the clinical trial are presented in Tables 19-20 based on 8803 and 8801 subjects randomised to semaglutide and placebo, respectively. Results from the chronic heart failure (HF) population of the clinical trial are presented in Tables 21-22 based on 2155 and 2131 chronic HF subjects randomised to semaglutide and placebo, respectively. Heart failure leading to hospitalisation was defined as hospital admission for at least 24 hours with a primary diagnosis of heart failure with documented new or worsening symptoms due to heart failure; and objective evidence of new or worsening heart failure (physical findings and/or laboratory evidence or invasive diagnostic evidence); and increased/initiated appropriate treatment. Estimated hazard ratios relative to placebo and two-sided p-values were obtained from a Cox proportional hazards model with randomised treatment as a fixed factor. CI: Confidence interval.

[2] = tested on: hospitalisation for heart failure; conditions: 0.5 mg or 1.0 mg subcutaneous once weekly, compared to placebo; cited from earlier work
[3] = subjects with chronic HF only (2155)

N-epsilon26-[2-(2-{2-[2-(2-{2-[(S)-4-Carboxy-4-(17-carboxyheptadecanoyl-amino) butyrylamino]ethoxy}ethoxy) acetylamino]ethoxy}ethoxy) acetyl] [Aib8,Arg34] GLP-1-(7-37) [Semaglutide]
Heart failure leading to hospitalisation, Treatment Hazard ratio vs. placebo [1]: 0.79
Heart failure leading to hospitalisation, Events ([1]; 8803 subjects): 97
Heart failure leading to hospitalisation, Events (%) ([1]; 8803 subjects): 1.1%
Heart failure leading to hospitalisation, Treatment Hazard ratio vs. placebo ([1]; listed as semaglutide): achieved a reduction
Reduction for CV death compared with placebo ([1]; patients with chronic heart failure, statistically significant): 24%
Heart failure leading to hospitalisation, Events [1, 3]: 61
Heart failure leading to hospitalisation, Events (%) [1, 3]: 2.8%
Heart failure leading to hospitalisation, Treatment Hazard ratio vs. placebo ([1]; subjects with chronic HF only): 0.86
Heart failure leading to hospitalisation, Treatment Hazard ratio vs. placebo ([1]; subjects with chronic HF only, listed as semaglutide): achieved a reduction
Hospitalisation for heart failure, hazard ratio (95% confidence interval) [2]: 1.11 (0.77−1.61)

From patent US20260102472A1, “SEMAGLUTIDE IN MEDICAL THERAPY” (Novo Nordisk A/S, priority 2023, published 2026)
